Data published in patent publication US20160297830A1, “NOVEL COMPOUNDS USEFUL FOR THE TREATMENT OF BACTERIAL INFECTIOUS DISEASES” (GALAPAGOS NV, priority 2013, published 2016).
Values after ≈ are worked out from the molar mass of the structure shown. Where two headings read alike, the source gives them in different places.

Assays:
[1] = system: H. influenza Hi47 clinical strain, Ampicillin Resistant; test: organism not typed; format: cell-based; details: for MIC Hi47: H. influenza Hi47 clinical strain, Ampicillin Resistant; for MIC: read-out: MIC Hi47
[2] = system: S. aureus Sa26 ATCC 25923; test: Antibacterial activity assay (MIC), S. aureus Sa26; format: cell-based; details: for MIC: Staphylococcus aureus
[3] = system: E. coli Ec50 efflux pump KO; test: microbe, parasite or virus in culture; format: cell-based; details: for MIC Ec50 efflux pump KO: E. coli Ec50 efflux pump KO; for MIC: Escherichia coli, read-out: MIC Ec50 efflux pump KO
[4] = system: S. aureus Sa2 clinical strain NCIMB 41953, MRSA; test: microbe, parasite or virus in culture; format: cell-based; details: for MIC Sa2: S. aureus Sa2 clinical strain, MRSA, Erythromycin Resistant, Fluoroquinolone resistant; for MIC: Staphylococcus aureus, read-out: MIC Sa2
[5] = biological target: DNA Polymerase IIIα (DnaE) from Staphylococcus aureus (Staphylococcus aureus, UniProt Q6GG04); test: biochemical
[6] = system: E. coli Ec113 efflux pump KO; test: microbe, parasite or virus in culture; format: cell-based; details: for MIC Ec113 efflux pump KO: E. coli Ec113 efflux pump KO; for MIC: Escherichia coli, read-out: MIC Ec113 efflux pump KO
S. aureus Sa1 ATCC 13709 = test: microbe, parasite or virus in culture; format: cell-based; details: for MIC: Staphylococcus aureus
S. aureus Sa4 NCTC 6571 = test: Antibacterial activity assay (MIC), S. aureus Sa4; format: cell-based; details: for MIC: Staphylococcus aureus
E. coli Ec1 ATCC 25922 = test: Antibacterial activity assay (MIC), E. coli Ec1; format: cell-based; details: for MIC: Escherichia coli
[7] = system: Methicillin Resistant S. aureus (MRSA); test: Neutropenic mouse thigh infection model; details: Thigh Sa
[8] = system: H. influenza Hi106 ATCC 51907; test: organism not typed; format: cell-based; details: read-out: MIC Hi106
[9] = system: H. influenza Hi3 ATCC 31517; test: organism not typed; format: cell-based; details: read-out: MIC Hi3
[10] = system: H. influenza Hi10 clinical strain; test: organism not typed; format: cell-based; details: read-out: MIC Hi10
[11] = S. aureus Sa26 ATCC 25923, sensitive strain, Mueller-Hinton Broth, 37° C.
[12] = S. aureus Sa1 ATCC 13709, sensitive strain, Mueller-Hinton Broth, 37° C.
[13] = S. aureus Sa4 NCTC 6571, sensitive strain
[14] = E. coli Ec1 ATCC 25922, sensitive strain
[15] = Study 1, 50 mg/kg SC BID, sample time 7 h PI
[16] = Study 2, 50 mg/kg SC BID, sample time 7 h PI
[17] = Study 3, 50 mg/kg SC BID, sample time 7 h PI
[18] = Study 4, 50 mg/kg SC BID, sample time 24 h PI
[19] = Study 5, 50 mg/kg SC BID, sample time 24 h PI
[20] = Study 6, 50 mg/kg SC BID, sample time 24 h PI
[21] = Study 7, 50 mg/kg SC BID, sample time 24 h PI
[22] = Study 8, 50 mg/kg SC QD, sample time 48 h PI
[23] = Study 9, 50 mg/kg SC BID, sample time 24 h PI

Sequence of DNA Polymerase IIIα (DnaE) from Staphylococcus aureus (Q6GG04 1-1022): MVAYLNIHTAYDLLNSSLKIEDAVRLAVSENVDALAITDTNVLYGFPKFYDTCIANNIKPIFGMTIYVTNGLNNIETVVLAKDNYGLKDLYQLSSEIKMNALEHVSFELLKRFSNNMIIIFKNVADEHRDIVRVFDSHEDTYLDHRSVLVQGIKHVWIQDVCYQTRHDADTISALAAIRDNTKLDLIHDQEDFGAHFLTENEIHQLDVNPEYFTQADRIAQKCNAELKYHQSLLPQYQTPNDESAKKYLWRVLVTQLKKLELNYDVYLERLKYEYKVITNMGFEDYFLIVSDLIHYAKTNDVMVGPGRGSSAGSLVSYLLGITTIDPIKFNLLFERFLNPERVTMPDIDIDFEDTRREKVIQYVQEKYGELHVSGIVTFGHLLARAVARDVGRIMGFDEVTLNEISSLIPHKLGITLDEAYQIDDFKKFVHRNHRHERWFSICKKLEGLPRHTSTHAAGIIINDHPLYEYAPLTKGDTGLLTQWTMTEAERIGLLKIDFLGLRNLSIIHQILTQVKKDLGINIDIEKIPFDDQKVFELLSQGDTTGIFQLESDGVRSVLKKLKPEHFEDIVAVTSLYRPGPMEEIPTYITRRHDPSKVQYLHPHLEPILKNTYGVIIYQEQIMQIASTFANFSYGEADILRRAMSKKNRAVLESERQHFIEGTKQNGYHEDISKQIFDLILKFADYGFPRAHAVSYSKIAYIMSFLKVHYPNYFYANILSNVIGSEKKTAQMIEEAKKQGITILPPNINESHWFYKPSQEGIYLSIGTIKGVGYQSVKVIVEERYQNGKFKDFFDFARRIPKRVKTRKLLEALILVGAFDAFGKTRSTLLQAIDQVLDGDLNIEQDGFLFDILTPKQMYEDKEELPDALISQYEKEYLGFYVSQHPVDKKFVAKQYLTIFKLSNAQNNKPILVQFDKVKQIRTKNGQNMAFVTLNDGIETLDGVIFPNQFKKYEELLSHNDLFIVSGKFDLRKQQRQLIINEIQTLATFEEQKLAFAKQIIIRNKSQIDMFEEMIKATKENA

| Compound | MIC Hi47 [1] | MIC Sa26 + 10% SH ([2]; S. aureus Sa26 + 10% SH) | MIC Sa26 + 50% SH ([2]; S. aureus Sa26 + 50% SH) | MIC Sa26 [2, 11] | MIC Ec50 efflux pump KO [3] | MIC Sa2 [4] | MIC Ec113 efflux pump KO [6] | MIC Sa1 (S. aureus Sa1 ATCC 13709; [12]) | MIC Sa4 (S. aureus Sa4 NCTC 6571; [13]) | MIC Ec1 (E. coli Ec1 ATCC 25922; [14]) | MIC [8] | MIC [1] | MIC [3] | MIC [9] | MIC [4] | IC50 [5] | MIC [6] | MIC [10] | other results |
| --- | --- | --- | --- | --- | --- | --- | --- | --- | --- | --- | --- | --- | --- | --- | --- | --- | --- | --- | --- |
| 8-O-4-Bromo-5-Chloro-1H-pyrrole-2′-carbonylbranimycin [Compound 35] | >64 µg/mL | >64 µg/mL | >64 µg/mL | >64 µg/mL | >64 µg/mL | 64 µg/mL | 64 µg/mL | >64 µg/mL | 64 µg/mL | >64 µg/mL |  |  |  |  |  |  |  |  | IC50 semiquantitative scoring, S. aureus [5]: ** (key: ***: 0.001-1 μg/mL; **: 1.0-10 μg/mL; *: >10 μg/mL) |
| 8-O-5-Bromo-4-Chloro-1H-pyrrole-2′-carbonylbranimycin [Compound 33] | >64 µg/mL | >64 µg/mL | >64 µg/mL | >64 µg/mL | >64 µg/mL | 64 µg/mL | 6 µg/mL | >64 µg/mL | 64 µg/mL | >64 µg/mL |  |  |  |  |  |  |  |  |  |
| O=C(O)c1cn(C2CC2)c2cc(N3CCNCC3)c(F)cc2c1=O [Ciprofloxacin] |  |  |  |  |  |  |  |  |  |  |  |  |  |  |  |  |  |  | Active [7, 15]: N; Log reduction vs. untreated [7, 15]: −1.27; Active [7, 16]: N; Log reduction vs. untreated [7, 16]: −1.07; Active [7, 17]: N; Log reduction vs. untreated [7, 17]: 0.22; Active [7, 18]: N; Log reduction vs. untreated [7, 18]: −0.05; Active [7, 19]: N; Log reduction vs. untreated [7, 19]: −0.27; Active [7, 20]: N; Log reduction vs. untreated [7, 20]: −0.26; Active [7, 21]: N; Log reduction vs. untreated [7, 21]: −0.08; Active [7, 22]: N; Log reduction vs. untreated [7, 22]: −0.39; Active [7, 23]: N; Log reduction vs. untreated [7, 23]: −1.28 |
| COC/C(=N\OC)[C@H]1OC(=O)[C@H](COC)[C@H]2C=C[C@H]3[C@H]4O[C@]2(/C(C)=C/[C@H]1C)[C@@H]3[C@H](O)[C@@H](COC)[C@H]4OC(=O)c1ccc[nH]1 [Compound 27, 18-Deoxy-18-methoximino-8-O-1H-pyrrole-2′-carbonylbranimycin] |  |  |  |  |  |  |  |  |  |  | > 64 µg/mL | > 64 µg/mL | > 64 µg/mL | > 64 µg/mL | 1 µg/mL (≈ 1.66 µM) | 1.66 to 1660 nM | 4 µg/mL (≈ 6.64 µM) | > 64 µg/mL | MIC ([2]; ATCC25923, read-out: MIC Sa26): 1 µg/mL (≈ 1.66 µM); MIC ([2]; ATCC25923, read-out: MIC Sa26 + 10% SH): 2 µg/mL; MIC ([2]; ATCC25923, read-out: MIC Sa26 + 50% SH): 4 µg/mL; MIC (S. aureus Sa1 ATCC 13709; ATCC13709, read-out: MIC Sa1): 1 µg/mL (≈ 1.66 µM); MIC (S. aureus Sa4 NCTC 6571; NCTC6571, read-out: MIC Sa4): 1 µg/mL (≈ 1.66 µM); MIC (E. coli Ec1 ATCC 25922; ATCC25922, read-out: MIC Ec1): > 64 µg/mL |
| COCC(=NOC(C)=O)[C@H]1OC(=O)[C@H](COC)[C@H]2C=C[C@H]3[C@H]4O[C@]2(/C(C)=C/[C@H]1C)[C@@H]3[C@H](O)[C@@H](COC)[C@H]4OC(=O)c1ccc[nH]1 [Compound 29, 18-Acetylimino-18-deoxy-8-O-1H-pyrrole-2′-carbonylbranimycin] |  |  |  |  |  |  |  |  |  |  | 64 µg/mL (≈ 101 µM) | 64 µg/mL (≈ 101 µM) | 32 µg/mL (≈ 50.7 µM) | > 64 µg/mL | 0.5 µg/mL (≈ 0.793 µM) | 1.59 to 1590 nM | 0.5 µg/mL (≈ 0.793 µM) | > 64 µg/mL | MIC ([2]; ATCC25923, read-out: MIC Sa26 + 10% SH, S. aureus Sa26 + 10% SH): 1 µg/mL; MIC ([2]; ATCC25923, read-out: MIC Sa26 + 50% SH, S. aureus Sa26 + 50% SH): 2 µg/mL; MIC ([2]; ATCC25923, S. aureus Sa26 ATCC 25923, sensitive strain, Mueller-Hinton Broth, 37° C., read-out: MIC Sa26): 1 µg/mL (≈ 1.59 µM); MIC (S. aureus Sa1 ATCC 13709; ATCC13709, S. aureus Sa1 ATCC 13709, sensitive strain, Mueller-Hinton Broth, 37° C., read-out: MIC Sa1): 0.5 µg/mL (≈ 0.793 µM); MIC (S. aureus Sa4 NCTC 6571; NCTC6571, S. aureus Sa4 NCTC 6571, sensitive strain, read-out: MIC Sa4): 0.5 µg/mL (≈ 0.793 µM); MIC (E. coli Ec1 ATCC 25922; ATCC25922, E. coli Ec1 ATCC 25922, sensitive strain, read-out: MIC Ec1): > 64 µg/mL |
